According to article PMC9110316 (Computational and Structural Biotechnology Journal, 2022):
pEC50: −log10 of the molar value. Where two headings read alike, the source gives them in different places. Where a SMILES comes first, the peptide text is derived from it. [ ]: non-standard residue; d: D form. The star is where a group is joined. Nle = CCCC[CH](N)C(=O)O; Cbz = O=C(OCc1ccccc1)*

Columns and labels:
[1] = test system: SARS-CoV-2 B.1.351 (Beta) variant pseudovirus; experiment: organism not typed; format: cell-based; conditions: A549, read-out: EC50, inhibition of SARS-CoV-2 B.1.351 (Beta) variant pseudovirus infection
[2] = test system: SARS-CoV-2 B.1.351 (Beta) variant pseudovirus; experiment: organism not typed; format: cell-based; conditions: Huh-7, read-out: EC50, inhibition of SARS-CoV-2 B.1.351 (Beta) variant pseudovirus infection

Compound | pEC50 [1] | pEC50 [2]
CCCC[C@@H](C=O)NC(=O)[C@H](CC(C)C)NC(=O)OCc1ccccc1 [calpeptin] | 4.44 | 4.62
CC(=O)N[C@@H](CC(C)C)C(=O)N[C@@H](CC(C)C)C(=O)N[C@H](C=O)CCCNC(=N)N [leupeptin hemisulfate] | 5.11 | 4.77
CC(C)C[C@@H](C=O)NC(=O)[C@H](CC(C)C)NC(=O)[C@H](CC(C)C)NC(=O)OCc1ccccc1 [Mg-132] (Cbz-Leu-Leu-Leu-aldehyde) | 6.04 | 6.05
CCCCC(C=O)NC(=O)C(CC(C)C)NC(=O)C(CC(C)C)NC(C)=O (stereo not drawn) [Mg-101] (Ac-Leu-Leu-[Nle]-aldehyde; configuration not given here) | 5.72 | 6.07
CC(NC(=O)C(Cc1ccccc1)NC(=O)OCc1ccccc1)C(=O)CF (stereo not shown) [Z-FA-FMK] | 5.27 | 5.00
